Measurements taken from ChEMBL document CHEMBL2157896, “Engineering pH-gated transitions for selective and efficient double-strand DNA photocleavage in hypoxic tumors” (J Med Chem, 2011).
The source made the active and inactive calls. No cut-off for these calls is given here.

How the values were obtained:
Nucleic Acid [1] = assay: Induction of photochemical DNA cleavage in Escherichia coli pBR322 assessed as form I level at 15 uM in pH 7.0 phosphate buffer measured after 8 mins of UV irradiation; type: nucleic-acid assay
Nucleic Acid [2] = assay: Induction of photochemical DNA cleavage in Escherichia coli pBR322 assessed as form I level at 15 uM in pH 8.0 phosphate buffer measured after 2 mins of UV irradiation; type: nucleic-acid assay
Nucleic Acid [3] = assay: Induction of photochemical DNA cleavage in Escherichia coli pBR322 assessed as form I level at 15 uM in pH 6.0 phosphate buffer measured after 0.5 mins of UV irradiation; type: nucleic-acid assay
Nucleic Acid [4] = assay: Induction of photochemical DNA cleavage in Escherichia coli pBR322 assessed as form I level at 15 uM in pH 7.0 phosphate buffer measured after 1 min of UV irradiation; type: nucleic-acid assay
Nucleic Acid [5] = assay: Induction of photochemical DNA cleavage in Escherichia coli pBR322 assessed as form 3 level at 15 uM in pH 8.0 phosphate buffer measured after 4 mins of UV irradiation; type: nucleic-acid assay
Nucleic Acid [6] = assay: Induction of photochemical DNA cleavage in Escherichia coli pBR322 assessed as form 2 level at 15 uM in pH 6.0 phosphate buffer measured after 1 min of UV irradiation; type: nucleic-acid assay
Nucleic Acid [7] = assay: Induction of photochemical DNA cleavage in Escherichia coli pBR322 assessed as form 3 level at 15 uM in pH 6.0 phosphate buffer measured after 1 min of UV irradiation; type: nucleic-acid assay
Nucleic Acid [8] = assay: Induction of photochemical DNA cleavage in Escherichia coli pBR322 assessed as form 3 level at 15 uM in pH 7.0 phosphate buffer measured after 8 mins of UV irradiation; type: nucleic-acid assay
Nucleic Acid [9] = assay: Induction of photochemical DNA cleavage in Escherichia coli pBR322 assessed as form 2 level at 15 uM in pH 8.0 phosphate buffer measured after 10 mins of UV irradiation; type: nucleic-acid assay
Nucleic Acid [10] = assay: Induction of photochemical DNA cleavage in Escherichia coli pBR322 assessed as form 3 level at 15 uM in pH 8.0 phosphate buffer measured after 2 mins of UV irradiation; type: nucleic-acid assay
Nucleic Acid [11] = assay: Induction of photochemical DNA cleavage in Escherichia coli pBR322 assessed as form I level at 15 uM in pH 8.0 phosphate buffer measured after 6 mins of UV irradiation; type: nucleic-acid assay
Nucleic Acid [12] = assay: Induction of photochemical DNA cleavage in Escherichia coli pBR322 assessed as form 2 level at 15 uM in pH 8.0 phosphate buffer measured after 8 mins of UV irradiation; type: nucleic-acid assay
A-375 [13] = assay: Toxicity in human A375 cells at <10 uM under dark condition incubated for 72 hrs by MTT assay; type: cell-based; conditions: a-375, 72 h
Nucleic Acid [14] = assay: Induction of photochemical DNA cleavage in Escherichia coli pBR322 assessed as form I level at 15 uM in pH 7.0 phosphate buffer measured after 2 mins of UV irradiation; type: nucleic-acid assay
Nucleic Acid [15] = assay: Induction of DNA cleavage in Escherichia coli pBR322 at 10 uM in pH 6.0 phosphate buffer measured after of UV irradiation; type: nucleic-acid assay
Nucleic Acid [16] = assay: Induction of photochemical DNA cleavage in Escherichia coli pBR322 assessed as form 3 level at 15 uM in pH 8.0 phosphate buffer measured after 0.5 mins of UV irradiation; type: nucleic-acid assay
Nucleic Acid [17] = assay: Induction of photochemical DNA cleavage in Escherichia coli pBR322 assessed as form 2 level at 15 uM in pH 7.0 phosphate buffer measured after 2 mins of UV irradiation; type: nucleic-acid assay
Nucleic Acid [18] = assay: Induction of photochemical DNA cleavage in Escherichia coli pBR322 assessed as form 3 level at 15 uM in pH 8.0 phosphate buffer measured after 8 mins of UV irradiation; type: nucleic-acid assay
Nucleic Acid [19] = assay: Induction of photochemical DNA cleavage in Escherichia coli pBR322 assessed as form 3 level at 15 uM in pH 7.0 phosphate buffer measured after 1 min of UV irradiation; type: nucleic-acid assay
Nucleic Acid [20] = assay: Induction of photochemical DNA cleavage in Escherichia coli pBR322 assessed as form 3 level at 15 uM in pH 7.0 phosphate buffer measured after 2 mins of UV irradiation; type: nucleic-acid assay
Nucleic Acid [21] = assay: Induction of photochemical DNA cleavage in Escherichia coli pBR322 assessed as form 2 level at 15 uM in pH 7.0 phosphate buffer measured after 4 mins of UV irradiation; type: nucleic-acid assay
Nucleic Acid [22] = assay: Induction of photochemical DNA cleavage in Escherichia coli pBR322 assessed as form 2 level at 15 uM in pH 8.0 phosphate buffer measured after 6 mins of UV irradiation; type: nucleic-acid assay
Nucleic Acid [23] = assay: Induction of photochemical DNA cleavage in Escherichia coli pBR322 assessed as form I level at 15 uM in pH 8.0 phosphate buffer measured after 8 mins of UV irradiation; type: nucleic-acid assay
Nucleic Acid [24] = assay: Induction of photochemical DNA cleavage in Escherichia coli pBR322 assessed as form 2 level at 15 uM in pH 8.0 phosphate buffer measured after 1 min of UV irradiation; type: nucleic-acid assay
Nucleic Acid [25] = assay: Induction of photochemical DNA cleavage in Escherichia coli pBR322 assessed as supercoiled DNA level at 15 uM in pH 6.0 phosphate buffer measured after 2 mins of UV irradiation; type: nucleic-acid assay
A-375 [26] = assay: Phototoxicity in human A375 cells incubated for 72 hrs exposed to UV light for 10 mins by MTT assay; type: functional; conditions: A-375, light or radiation study
Nucleic Acid [27] = assay: Induction of photochemical DNA cleavage in Escherichia coli pBR322 assessed as form 2 level at 15 uM in pH 8.0 phosphate buffer measured after 2 mins of UV irradiation; type: nucleic-acid assay
Nucleic Acid [28] = assay: Induction of photochemical DNA cleavage in Escherichia coli pBR322 assessed as disappearance of supercoiled DNA at 15 uM in pH 8.0 phosphate buffer after 10 mins of UV irradiation; type: nucleic-acid assay
Nucleic Acid [29] = assay: Induction of photochemical DNA cleavage in Escherichia coli pBR322 assessed as form I level at 15 uM in pH 8.0 phosphate buffer measured after 0.5 mins of UV irradiation; type: nucleic-acid assay
Nucleic Acid [30] = assay: Induction of photochemical DNA cleavage in Escherichia coli pBR322 assessed as form 2 level at 15 uM in pH 7.0 phosphate buffer measured after 0.5 mins of UV irradiation; type: nucleic-acid assay
Nucleic Acid [31] = assay: Induction of photochemical DNA cleavage in Escherichia coli pBR322 assessed as form 2 level at 15 uM in pH 8.0 phosphate buffer measured after 0.5 mins of UV irradiation; type: nucleic-acid assay
Nucleic Acid [32] = assay: Induction of photochemical DNA cleavage in Escherichia coli pBR322 assessed as form I level at 15 uM in pH 7.0 phosphate buffer measured after 6 mins of UV irradiation; type: nucleic-acid assay
Nucleic Acid [33] = assay: Induction of photochemical DNA cleavage in Escherichia coli pBR322 assessed as form I level at 15 uM in pH 7.0 phosphate buffer measured after 10 mins of UV irradiation; type: nucleic-acid assay
Nucleic Acid [34] = assay: Induction of photochemical DNA cleavage in Escherichia coli pBR322 assessed as form 3 level at 15 uM in pH 6.0 phosphate buffer measured after 2 mins of UV irradiation; type: nucleic-acid assay
Nucleic Acid [35] = assay: Induction of photochemical DNA cleavage in Escherichia coli pBR322 assessed as form 2 level at 15 uM in pH 6.0 phosphate buffer measured after 0.5 mins of UV irradiation; type: nucleic-acid assay

NCCCC[C@H](N)C(=O)NCCCC[C@H](N)C(=O)Nc1ccc(C#Cc2c(F)c(F)nc(F)c2F)cc1.O=C(O)C(F)(F)F was tested, and the Activity (Nucleic Acid [1]) was 20.9%, the Activity (Nucleic Acid [2]) was 77.8% and the Activity (Nucleic Acid [3]) was 26.5%. The Activity (Nucleic Acid [4]) was 52.7%, the Activity (Nucleic Acid [5]) was 0% and the Activity (Nucleic Acid [6]) was 52.7%. The Activity (Nucleic Acid [7]) was 17.1%, the Activity (Nucleic Acid [8]) was 28.1% and the Activity (Nucleic Acid [9]) was 52.3%. For the same compound, the Activity (Nucleic Acid [10]) was 0%, the Activity (Nucleic Acid [11]) was 40.8% and the Activity (Nucleic Acid [12]) was 45.6%. For the same compound, the Activity (A-375 [13]) was “Non-toxic”, the Activity (Nucleic Acid [14]) was 45.8% and the Activity (Nucleic Acid [15]) was 75%. It also gave an Activity (Nucleic Acid [16]) of 0%, an Activity (Nucleic Acid [17]) of 41.5% and an Activity (Nucleic Acid [18]) of 12.1%. The Activity (Nucleic Acid [19]) was 0%, the Activity (Nucleic Acid [20]) was 12.7% and the Activity (Nucleic Acid [21]) was 52.4%. It also gave an Activity (Nucleic Acid [22]) of 59.2%, an Activity (Nucleic Acid [23]) of 42.3% and an Activity (Nucleic Acid [24]) of 16.1%. It also gave an Activity (Nucleic Acid [25]) of less than 17%, a CC50 (A-375 [26]) of 0.27 µM and an Activity (Nucleic Acid [27]) of 22.2%. For the same compound, the Activity (Nucleic Acid [28]) was “Active”, the Activity (Nucleic Acid [29]) was 86.4% and the Activity (Nucleic Acid [30]) was 35.4%. For the same compound, the Activity (Nucleic Acid [31]) was 13.6%, the Activity (Nucleic Acid [32]) was 24.7% and the Activity (Nucleic Acid [33]) was 11.7%. For the same compound, the Activity (Nucleic Acid [34]) was 28.4% and the Activity (Nucleic Acid [35]) was 60%.
